Test results reported in patent publication US9766197B2, “Methods for generating pH/ionic concentration gradient near electrode surfaces for modulating biomolecular interactions, and bubble detection using electrodes” (Robert Bosch GmbH, priority 2014, dated 2017).
Each block holds one compound with its values, some of them ahead of it.

Legend:
[1] = Electrochemical modulation of pH at ITO working electrode monitored by GFP fluorescence intensity; format: physicochemical
From the text: After current was turned off, the pH recovered to neutral value within 50 seconds.
Electrode material used: The electrode material was indium tin oxide. The fluorescent protein used is GFP immobilized on a glass substrate which includes an array of electrodes. The GFP is applied as spots, each spot covers an area that overlaps with one electrode and an area that is not overlapping with an electrode.
The pH change at the surface of ITO working electrode is generated via current-driven oxidation of a redox active molecule, 2-methyl-1,4-dihydroquinone, in diluted phosphate buffer (pH=7.4) containing 0.1M Na2SO4. […] FIG. 10 is used as calibration curve to assess the pH values.

[2] = Electro-oxidation of ascorbic acid at indium tin oxide electrode (cyclic voltammetry); format: physicochemical; details: Indium tin oxide vs Ag/AgCl reference electrode
From the text: FIG. 7B: Cyclic voltammetric study of the oxidation of Ascorbic acid test in ITO electrodes.
(§1) Electrode material used: The electrode material was indium tin oxide. This is a semiconducting electrode surface with very large potential window in an aqueous solution.
Oxidation of ascorbic acid at the electrode surfaces produced H^+ ions and changed the electrode surface pH to a more acidic state: AH2→A+2H^++2e^−, where AH2 is ascorbic acid ([…]) (as shown in FIG. 5). The electrode potential at which it oxidizes was less than 0.5V for Indium tin oxide material vs Ag/AgCl reference electrode (as shown in FIG. 7). This potential was less than the voltages needed for the oxygen evolution reaction in aqueous solution. The ascorbic acid also acted as a sacrificial species to prevent electrochemical degradation of the surface chemistry.

[3] = target: Green Fluorescent Protein (GFP) (Aequorea victoria, UniProt P42212); assay: Fluorescence intensity of GFP after incubation with benzoquinones (protein stability); format: biochemical; details: 0.5 mM benzoquinone, phosphate buffered saline, 30 min
From the text: Para-benzoquinones and ortho-benzoquinones (compounds 2, 4, 6, and 9 in FIG. 31) are susceptible to nucleophilic attack at the double bond of the ring (positions 2, 3, 5 and 6 in structure 2 of FIG. 31, positions 3, 4, 5 and 6 in structure 4 of FIG. 31, and positions 2 and 3 in structure 6 of FIG. 31). Introducing substituents at some or all of those positions can mitigate the problem of nucleophilic attack. For example, 1,4-benzoquinone (structure 2 in FIG. 31, where R1, R2, R3 and R4 are H) undergoes Michael addition reaction with amino groups of proteins (Loomis et al., Phytochemistry, 5, 423, (1966) and U.S. Pat. No. 6,753,312 B2). […] Fluorescence intensity of Green Fluorescent Protein (GFP) was measured after incubation with three different benzoquinones in phosphate buffered saline for 30 min (concentration of benzoquinones was 0.5 mM). The difference in fluorescence intensity indicates the varied effect that the different substitutions in benzoquinones have on the stability of GFP. Fluorescence intensity of GFP is indicative of its structural integrity. Losses in fluorescence intensity usually indicate loss of its tertiary structure (protein denaturation) (Yin D. X., Zhu L., Schimke R. T. Anal. Biochem. 1996, 235:195-201).

[4] = Electro-reduction of benzoquinone into hydroquinone to produce OH- ions; format: physicochemical
From the text: as §1
Reduction of benzoquinone (C6H4O2) into Hydroquinone (C6H6O2) can produce OH^− ions at −0.1V: BQ+2e^−+2H2O→HQ+2OH^− This reduction reaction increased the pH at the electrode interface.

SMILES: Cc1cc(O)ccc1O [2-methyl-1,4-dihydroquinone]
solution pH after current-driven oxidation ([1]; 50 microamps for 30 second, diluted phosphate buffer pH 7.4, 0.1M Na2SO4, ITO working electrode): 5.5
time for pH to recover to neutral value after current was turned off ([1]; diluted phosphate buffer pH 7.4, 0.1M Na2SO4): ≤ 50 seconds

electrode potential at which it oxidizes [2]: less than 0.5 V
SMILES: O=C1O[C@H]([C@@H](O)CO)C(O)=C1O [ascorbic acid]

SMILES: O=C1C=CC(=O)C=C1 [unsubstituted benzoquinone, 1,4-benzoquinone]
loss in GFP fluorescence intensity after incubation [3]: 25%
potential of reduction producing OH- ions [4]: −0.1 V
